Experimental data: ChEMBL document CHEMBL1201862, “PubChem BioAssay data set” (2004)
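Briefly, cells in 96-well plates were exposed to five compound concentrations for 48 h, and endpoints were estimated by linear interpolation. GI50: concentration for 50% inhibition of growth.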 The source made the active and inactive calls. No stated cut-off is given here; in the data, active = GI50 up to about 1.1 µM and inactive = higher.

Columns and labels:
Assay in all cases: inhibition of tumour cell growth, NCI panel, 48 h
HCT-15 = test system: HCT-15
SK-MEL-2 = test system: SK-MEL-2
M14 = test system: M14
SK-MEL-28 = test system: SK-MEL-28
HCC 2998 = test system: HCC 2998
SW-620 = test system: SW-620
SF-295 = test system: SF-295
HOP-62 = test system: HOP-62
ACHN = test system: ACHN
KM-20L2 = test system: KM-20L2
NCI-H23 = test system: NCI-H23
HCT-116 = test system: HCT-116
COLO 205 = test system: COLO 205
Malme-3M = test system: Malme-3M
SK-MEL-5 = test system: SK-MEL-5
NCI-H226 = test system: NCI-H226
LOX IMVI = test system: LOX IMVI
BT-549 = test system: BT-549
PC-3 = test system: PC-3
MDA-MB-231 = test system: MDA-MB-231

| SMILES | GI50 (HCT-15) [µM] | GI50 (SK-MEL-2) | GI50 (M14) | GI50 (SK-MEL-28) | GI50 (HCC 2998) | GI50 (SW-620) | GI50 (SF-295) | GI50 (HOP-62) | GI50 (ACHN) | GI50 (KM-20L2) | GI50 (NCI-H23) | GI50 (HCT-116) | GI50 (COLO 205) | GI50 (Malme-3M) | GI50 (SK-MEL-5) | GI50 (NCI-H226) | GI50 (LOX IMVI) | GI50 (BT-549) | GI50 (PC-3) | GI50 (MDA-MB-231) |
| --- | --- | --- | --- | --- | --- | --- | --- | --- | --- | --- | --- | --- | --- | --- | --- | --- | --- | --- | --- | --- |
| COC1/C(=C\C(=O)OC(C)(C)C)c2ccccc2N1C(C)=O (stereo not drawn) | > 100 | > 100 µM (inactive) | > 100 µM (inactive) | > 100 µM (inactive) | > 100 µM (inactive) | > 100 µM (inactive) | > 100 µM (inactive) | > 100 µM (inactive) | > 100 µM (inactive) | > 100 µM (inactive) | > 100 µM (inactive) | > 100 µM (inactive) | > 100 µM (inactive) | – | – | – | – | – | – | – |
| O=C(O)Cn1c(=O)[nH]c(=O)c2c1ncn2Cc1ccccc1 | > 100 | > 100 µM (inactive) | > 100 µM (inactive) | > 100 µM (inactive) | – | > 100 µM (inactive) | – | > 100 µM (inactive) | > 100 µM (inactive) | > 100 µM (inactive) | > 100 µM (inactive) | > 100 µM (inactive) | > 100 µM (inactive) | > 100 µM (inactive) | > 100 µM (inactive) | > 100 µM (inactive) | – | – | – | – |
| CCCCCC(=O)Cc1cc(OC)cc2c1C(=O)Oc1cc(O)c(C(=O)O)c(CC(=O)CCCCC)c1O2 | – | – | 63.2 µM (inactive) | – | 48.5 µM (inactive) | > 100 µM (inactive) | 55.3 µM (inactive) | > 100 µM (inactive) | 35.7 µM (inactive) | 49.4 µM (inactive) | 19.2 µM (inactive) | 26 µM (inactive) | 45 µM (inactive) | 51.4 µM (inactive) | > 100 µM (inactive) | > 100 µM (inactive) | 77.8 µM (inactive) | – | – | – |
| CCCCOC1CC2(c3ccc(OC)cc3)C(=O)c3ccccc3N2O1 (stereo not drawn) | > 10 | 71.6 µM (inactive) | 46.1 µM (inactive) | – | – | 65 µM (inactive) | 42.1 µM (inactive) | – | > 10 µM (inactive) | > 10 µM (inactive) | – | 37.5 µM (inactive) | 27.1 µM (inactive) | 19.2 µM (inactive) | 31.7 µM (inactive) | > 10 µM (inactive) | > 10 µM (inactive) | – | – | – |
| COC(=O)CSc1ccccc1 | > 100 | 11.5 µM (inactive) | > 100 µM (inactive) | – | > 100 µM (inactive) | > 100 µM (inactive) | > 100 µM (inactive) | > 100 µM (inactive) | > 100 µM (inactive) | > 100 µM (inactive) | > 100 µM (inactive) | > 100 µM (inactive) | > 100 µM (inactive) | 25.4 µM (inactive) | > 100 µM (inactive) | – | > 100 µM (inactive) | – | – | – |
| Nc1nnc2c(-c3ccccc3)n[nH]c2n1 | 52.1 | 90.2 µM (inactive) | > 100 µM (inactive) | 91.6 µM (inactive) | 93.5 µM (inactive) | 54.7 µM (inactive) | 67 µM (inactive) | – | 30 µM (inactive) | 49.8 µM (inactive) | 68.7 µM (inactive) | > 100 µM (inactive) | 34.4 µM (inactive) | – | – | 46 µM (inactive) | 50.6 µM (inactive) | – | – | – |
| O=C(O)c1[nH]c(C(=O)O)c(CC(F)(F)C(F)(F)C(F)(F)F)c1CC(F)(F)C(F)(F)C(F)(F)F | > 100 | – | > 100 µM (inactive) | > 100 µM (inactive) | > 100 µM (inactive) | > 100 µM (inactive) | > 100 µM (inactive) | > 100 µM (inactive) | > 100 µM (inactive) | > 100 µM (inactive) | > 100 µM (inactive) | > 100 µM (inactive) | > 100 µM (inactive) | > 100 µM (inactive) | > 100 µM (inactive) | > 100 µM (inactive) | > 100 µM (inactive) | – | – | – |
| C=CCN1/C(=C2\SC(=S)N(c3ccc(C)cc3)C2=O)Sc2c1nc[nH]c2=O | 47 | 43.3 µM (inactive) | > 100 µM (inactive) | > 100 µM (inactive) | – | 65.3 µM (inactive) | 88.7 µM (inactive) | > 100 µM (inactive) | > 100 µM (inactive) | > 100 µM (inactive) | > 100 µM (inactive) | > 100 µM (inactive) | > 100 µM (inactive) | 78.2 µM (inactive) | 66.1 µM (inactive) | > 100 µM (inactive) | 33.9 µM (inactive) | – | – | – |
| C[C@]12CC[C@H]3[C@@H](CC=C4C[C@@H](O)CC[C@@]43C)[C@@H]1C[C@H](N1CCOCC1)[C@@H]2O | > 100 | > 100 µM (inactive) | > 100 µM (inactive) | > 100 µM (inactive) | > 100 µM (inactive) | > 100 µM (inactive) | > 100 µM (inactive) | > 100 µM (inactive) | > 100 µM (inactive) | – | > 100 µM (inactive) | > 100 µM (inactive) | > 100 µM (inactive) | > 100 µM (inactive) | 77.3 µM (inactive) | > 100 µM (inactive) | > 100 µM (inactive) | 27.9 µM (inactive) | > 100 µM (inactive) | 54.3 µM (inactive) |
| CCOC(=O)C1=C(C)N(Cc2ccc(Cl)cc2Cl)C2(O)C(OC)CC(=O)C3C(=O)N(c4ccccc4)C(=O)C132 (stereo not drawn) | 1.36 | 1.28 µM (inactive) | 2.09 µM (inactive) | 1.97 µM (inactive) | 2.08 µM (inactive) | 2.52 µM (inactive) | 4.43 µM (inactive) | 0.995 µM (active) | 3.12 µM (inactive) | – | 3.46 µM (inactive) | 1.39 µM (inactive) | 3.64 µM (inactive) | 10.6 µM (inactive) | 3.97 µM (inactive) | 3.33 µM (inactive) | 1.05 µM (active) | 1.61 µM (inactive) | 2.64 µM (inactive) | 1.38 µM (inactive) |
| CN(C)CCNC(=O)c1cccc2nc3c(C(=O)NCCN(C)C)cccc3nc12 | 2.98 | 1.77 µM (inactive) | 1.51 µM (inactive) | 2.03 µM (inactive) | 1.15 µM (inactive) | 0.462 µM (active) | 1.31 µM (inactive) | 1.31 µM (inactive) | 0.668 µM (active) | – | 1.19 µM (inactive) | 0.603 µM (active) | 0.612 µM (active) | 1.77 µM (inactive) | 1.56 µM (inactive) | 1.46 µM (inactive) | 0.366 µM (active) | 3.18 µM (inactive) | 0.76 µM (active) | 1.14 µM (inactive) |
| Cc1ccnc2c1C(=O)C1=C(OC(C)(C)CC1O)C2=O (stereo not drawn) | 2.38 | 2.88 µM (inactive) | 2.62 µM (inactive) | 2.05 µM (inactive) | 3.88 µM (inactive) | 2.87 µM (inactive) | 3.81 µM (inactive) | 3.37 µM (inactive) | 5.82 µM (inactive) | – | 1.76 µM (inactive) | 2.82 µM (inactive) | 2.41 µM (inactive) | 1.27 µM (inactive) | 1.17 µM (inactive) | 6.08 µM (inactive) | 2.56 µM (inactive) | 3.36 µM (inactive) | 2.91 µM (inactive) | 2.97 µM (inactive) |
| O=[N+]([O-])c1ccc(Cl)cc1C1SCc2nc3ccccc3n21 (stereo not drawn) | 31 | 62.4 µM (inactive) | 31.2 µM (inactive) | > 100 µM (inactive) | 86.3 µM (inactive) | 50.6 µM (inactive) | 85.7 µM (inactive) | > 100 µM (inactive) | 14.3 µM (inactive) | > 100 µM (inactive) | 27.6 µM (inactive) | 38.3 µM (inactive) | 61.1 µM (inactive) | 99.8 µM (inactive) | 27.7 µM (inactive) | – | – | – | – | – |
| CC(=O)O[C@H]1[C@H](OC(C)=O)[C@@H](CN=[N+]=[N-])OCO[C@@H]1CN=[N+]=[N-] | > 100 | > 100 µM (inactive) | > 100 µM (inactive) | > 100 µM (inactive) | > 100 µM (inactive) | > 100 µM (inactive) | > 100 µM (inactive) | > 100 µM (inactive) | > 100 µM (inactive) | – | > 100 µM (inactive) | > 100 µM (inactive) | > 100 µM (inactive) | > 100 µM (inactive) | > 100 µM (inactive) | > 100 µM (inactive) | > 100 µM (inactive) | > 100 µM (inactive) | > 100 µM (inactive) | > 100 µM (inactive) |
| O=C1/C(=C\c2ccccc2)C2/C(=C\c3ccccc3)C(=O)/C(=C\c3ccccc3)C2/C1=C\c1ccccc1 (stereo not drawn) | 1.32 | 1.81 µM (inactive) | 1.43 µM (inactive) | 2.18 µM (inactive) | 1.29 µM (inactive) | 1.55 µM (inactive) | 2.07 µM (inactive) | 2.4 µM (inactive) | 2.29 µM (inactive) | 1.78 µM (inactive) | 1.62 µM (inactive) | – | 1.52 µM (inactive) | 1.77 µM (inactive) | 1.9 µM (inactive) | – | 0.316 µM (active) | – | – | – |
| COc1ccc(/N=C2\C(=N/c3ccc(OC)cc3)N(c3ccc(N(C)C)cc3)C(=S)N2c2ccc(OC)cc2)cc1 | > 100 | > 100 µM (inactive) | > 100 µM (inactive) | > 100 µM (inactive) | > 100 µM (inactive) | > 100 µM (inactive) | 0.0518 µM (active) | > 64.6 µM (inactive) | > 100 µM (inactive) | – | > 100 µM (inactive) | > 100 µM (inactive) | > 100 µM (inactive) | > 100 µM (inactive) | > 100 µM (inactive) | > 100 µM (inactive) | > 100 µM (inactive) | > 100 µM (inactive) | > 100 µM (inactive) | > 100 µM (inactive) |
| CC[C@@]1(O)C(=O)OCc2c1cc1n(c2=O)Cc2c-1nc1ccccc1c2/C=N/NC(=O)C[N+](C)(C)C | 14 | > 83.6 µM (inactive) | 1 µM (active) | 15.4 µM (inactive) | 4.59 µM (inactive) | 4.99 µM (inactive) | 0.56 µM (active) | 0.359 µM (active) | 0.277 µM (active) | – | 0.495 µM (active) | 2.3 µM (inactive) | 62.4 µM (inactive) | 16.7 µM (inactive) | 1.5 µM (inactive) | 0.802 µM (active) | 0.824 µM (active) | 15.4 µM (inactive) | 9.59 µM (inactive) | > 100 µM (inactive) |
